Experimental data: patent publication US6852673B2, “Herbicidal pyridine compounds” (BASF Aktiengesellschaft, priority 1998, dated 2005)

Columns and labels:
Type in all cases: in vivo
[1] = tested on: Echinochloa grus galli (ECHCG); assay: Pre-emergence herbicidal evaluation, barnyard grass
Source text: (§1) The pre-emergence herbicidal activity of the compounds of the present invention is exemplified by the following test in which the seeds of a variety of monocotyledonous and dicotyledonous plants are seperately mixed with potting soil and planted on top of approximately one inch of soil in separate pots. After planting, the pots are sprayed with the selected aqueous acetone solution containing test compound in sufficient quantity to provide the equivalent of about 0.0125 to 0.4 kg per hectare of test compound per pot. The treated pots are then placed on greenhouse benches, watered and cared for in accordance with conventional greenhouse procedures. From 2 to 4 weeks after treatment, the tests are terminated and each pot is examined and rated according to the rating system set forth below.

[2] = tested on: Ipomoea hederacea (IPOHE); assay: Pre-emergence herbicidal evaluation, morning glory
Source text: as §1

Glycine max (GLXMA) = assay: Post-emergence herbicidal evaluation, soyabeans; details: rated 2 to 4 weeks after treatment
Procedure: (§2) [table] [table] […] These acetone solutions are diluted with water and the resulting formulations applied at dosage levels equivalent of about 0.03 to 0.4 kg per hectare of test compound per pot. After spraying the plants are placed on greenhouse benches and are cared for in the usual manner, commensurate with conventional greenhouse practices. From 2 to 4 weeks after treatment, the seedling plants are examined and rated according to the rating system provided above. A rating 0 indicates growth as untreated control, a rating 9 indicates death.

Zea mays (ZEAMX) = assay: Pre-emergence herbicidal evaluation, maize
Source text: as §1

Stellaria media (STEME) = assay: Post-emergence herbicidal evaluation, chickweed; details: rated 2 to 4 weeks after treatment
Procedure: as §2

[3] = tested on: Cassia obtusifolia (CASOB); assay: Pre-emergence herbicidal evaluation, sicklepod
Source text: as §1

Hordeum vulgare (HORVW) = assay: Pre-emergence herbicidal evaluation, winter barley
Source text: as §1

[4] = tested on: Digitaria sanguinalis (DIGSA); assay: Post-emergence herbicidal evaluation, large crabgrass; details: rated 2 to 4 weeks after treatment
Procedure: as §2

[5] = tested on: Digitaria sanguinalis (DIGSA); assay: Pre-emergence herbicidal evaluation, large crabgrass
Source text: as §1

[6] = tested on: Cassia obtusifolia (CASOB); assay: Post-emergence herbicidal evaluation, sicklepod; details: rated 2 to 4 weeks after treatment
Procedure: as §2

## Cc1cc(OC=CCC(F)(F)F)nc(Oc2cc(C(F)(F)F)nn2C)c1 [Example 2, 2-(1-Methyl-3-trifluoromethylpyrazol-5-yloxy)-4-methyl-6-(4,4,4-trifluorobut-1-enyloxy)pyridine]
[1]; dose 0.013 kg/ha
  ECHCG rating: 0 (0 - No effect)
[1]; dose 0.025 kg/ha
  ECHCG rating: 2 (2 - Slight effect)
[1]; dose 0.1 kg/ha
  ECHCG rating: 8 (8 - Approaching complete kill)
[1]; dose 0.4 kg/ha
  ECHCG rating: 9 (9 - Complete kill)
[2]; dose 0.013 kg/ha
  IPOHE rating: 1 (1 - Trace effect)
[2]; dose 0.025 kg/ha
  IPOHE rating: 3 (3 - Moderate effect)
[2]; dose 0.1 kg/ha
  IPOHE rating: 3 (3 - Moderate effect)
[2]; dose 0.4 kg/ha
  IPOHE rating: 7 (7 - Good herbicidal effect)
Glycine max (GLXMA); dose 0.03 kg/ha
  GLXMA rating: 7 (7 - Good herbicidal effect)
Glycine max (GLXMA); dose 0.1 kg/ha
  GLXMA rating: 8 (8 - Approaching complete kill)
Glycine max (GLXMA); dose 0.4 kg/ha
  GLXMA rating: 8 (8 - Approaching complete kill)
Zea mays (ZEAMX); dose 0.013 kg/ha
  ZEAMX rating: 0 (0 - No effect)
Zea mays (ZEAMX); dose 0.025 kg/ha
  ZEAMX rating: 1 (1 - Trace effect)
Zea mays (ZEAMX); dose 0.1 kg/ha
  ZEAMX rating: 2 (2 - Slight effect)
Zea mays (ZEAMX); dose 0.4 kg/ha
  ZEAMX rating: 4 (4 - Injury)
Stellaria media (STEME); dose 0.03 kg/ha
  STEME rating: 4 (4 - Injury)
Stellaria media (STEME); dose 0.1 kg/ha
  STEME rating: 6 (6 - Herbicidal effect)
Stellaria media (STEME); dose 0.4 kg/ha
  STEME rating: 8 (8 - Approaching complete kill)
[3]; dose 0.013 kg/ha
  CASOB rating: 0 (0 - No effect)
[3]; dose 0.025 kg/ha
  CASOB rating: 1 (1 - Trace effect)
[3]; dose 0.1 kg/ha
  CASOB rating: 9 (9 - Complete kill)
[3]; dose 0.4 kg/ha
  CASOB rating: 9 (9 - Complete kill)
Hordeum vulgare (HORVW); dose 0.013 kg/ha
  HORVW rating: 0 (0 - No effect)
Hordeum vulgare (HORVW); dose 0.025 kg/ha
  HORVW rating: 0 (0 - No effect)
Hordeum vulgare (HORVW); dose 0.1 kg/ha
  HORVW rating: 3 (3 - Moderate effect)
Hordeum vulgare (HORVW); dose 0.4 kg/ha
  HORVW rating: 5 (5 - Definite injury)
[4]; dose 0.03 kg/ha
  DIGSA rating: 7 (7 - Good herbicidal effect)
[4]; dose 0.1 kg/ha
  DIGSA rating: 9 (9 - Complete kill)
[4]; dose 0.4 kg/ha
  DIGSA rating: 9 (9 - Complete kill)

## COc1cc(OCC(F)(F)C(F)F)nc(Oc2cc(C(F)(F)F)nn2C)c1 [Example 4, 2-(1-Methyl-3-trifluoromethylpyrazol-5-yloxy)-4-methoxy-6-(2,2,3,3-tetrafluoropropyloxy)pyridine]
[1]; dose 0.013 kg/ha
  ECHCG rating: 3 (3 - Moderate effect)
[1]; dose 0.025 kg/ha
  ECHCG rating: 5 (5 - Definite injury)
[1]; dose 0.1 kg/ha
  ECHCG rating: 8 (8 - Approaching complete kill)
[1]; dose 0.4 kg/ha
  ECHCG rating: 8 (8 - Approaching complete kill)
[2]; dose 0.013 kg/ha
  IPOHE rating: 3 (3 - Moderate effect)
[2]; dose 0.025 kg/ha
  IPOHE rating: 6 (6 - Herbicidal effect)
[2]; dose 0.1 kg/ha
  IPOHE rating: 9 (9 - Complete kill)
[2]; dose 0.4 kg/ha
  IPOHE rating: 9 (9 - Complete kill)
Glycine max (GLXMA); dose 0.03 kg/ha
  GLXMA rating: 5 (5 - Definite injury)
Glycine max (GLXMA); dose 0.1 kg/ha
  GLXMA rating: 8 (8 - Approaching complete kill)
Glycine max (GLXMA); dose 0.4 kg/ha
  GLXMA rating: 8 (8 - Approaching complete kill)
Zea mays (ZEAMX); dose 0.013 kg/ha
  ZEAMX rating: 1 (1 - Trace effect)
Zea mays (ZEAMX); dose 0.025 kg/ha
  ZEAMX rating: 1 (1 - Trace effect)
Zea mays (ZEAMX); dose 0.1 kg/ha
  ZEAMX rating: 3 (3 - Moderate effect)
Zea mays (ZEAMX); dose 0.4 kg/ha
  ZEAMX rating: 5 (5 - Definite injury)
Stellaria media (STEME); dose 0.03 kg/ha
  STEME rating: 6 (6 - Herbicidal effect)
Stellaria media (STEME); dose 0.1 kg/ha
  STEME rating: 6 (6 - Herbicidal effect)
Stellaria media (STEME); dose 0.4 kg/ha
  STEME rating: 8 (8 - Approaching complete kill)
[3]; dose 0.013 kg/ha
  CASOB rating: 3 (3 - Moderate effect)
[3]; dose 0.025 kg/ha
  CASOB rating: 4 (4 - Injury)
[3]; dose 0.1 kg/ha
  CASOB rating: 7 (7 - Good herbicidal effect)
[3]; dose 0.4 kg/ha
  CASOB rating: 9 (9 - Complete kill)
Hordeum vulgare (HORVW); dose 0.013 kg/ha
  HORVW rating: 1 (1 - Trace effect)
Hordeum vulgare (HORVW); dose 0.025 kg/ha
  HORVW rating: 2 (2 - Slight effect)
Hordeum vulgare (HORVW); dose 0.1 kg/ha
  HORVW rating: 3 (3 - Moderate effect)
Hordeum vulgare (HORVW); dose 0.4 kg/ha
  HORVW rating: 4 (4 - Injury)
[4]; dose 0.03 kg/ha
  DIGSA rating: 5 (5 - Definite injury)
[4]; dose 0.1 kg/ha
  DIGSA rating: 7 (7 - Good herbicidal effect)
[4]; dose 0.4 kg/ha
  DIGSA rating: 8 (8 - Approaching complete kill)

## CC(Cl)=CCOc1cc(C)cc(Oc2cc(C(F)(F)F)nn2C)n1 [Example 11]
[1]; dose 0.013 kg/ha
  ECHCG rating: 4 (4 - Injury)
[1]; dose 0.025 kg/ha
  ECHCG rating: 6 (6 - Herbicidal effect)
[1]; dose 0.1 kg/ha
  ECHCG rating: 8 (8 - Approaching complete kill)
[1]; dose 0.4 kg/ha
  ECHCG rating: 9 (9 - Complete kill)
[2]; dose 0.013 kg/ha
  IPOHE rating: 2 (2 - Slight effect)
[2]; dose 0.025 kg/ha
  IPOHE rating: 4 (4 - Injury)
[2]; dose 0.1 kg/ha
  IPOHE rating: 8 (8 - Approaching complete kill)
[2]; dose 0.4 kg/ha
  IPOHE rating: 9 (9 - Complete kill)
Zea mays (ZEAMX); dose 0.013 kg/ha
  ZEAMX rating: 1 (1 - Trace effect)
Zea mays (ZEAMX); dose 0.025 kg/ha
  ZEAMX rating: 2 (2 - Slight effect)
Zea mays (ZEAMX); dose 0.1 kg/ha
  ZEAMX rating: 3 (3 - Moderate effect)
Zea mays (ZEAMX); dose 0.4 kg/ha
  ZEAMX rating: 5 (5 - Definite injury)
Stellaria media (STEME); dose 0.03 kg/ha
  STEME rating: 4 (4 - Injury)
Stellaria media (STEME); dose 0.1 kg/ha
  STEME rating: 6 (6 - Herbicidal effect)
Stellaria media (STEME); dose 0.4 kg/ha
  STEME rating: 8 (8 - Approaching complete kill)
Hordeum vulgare (HORVW); dose 0.013 kg/ha
  HORVW rating: 3 (3 - Moderate effect)
Hordeum vulgare (HORVW); dose 0.025 kg/ha
  HORVW rating: 3 (3 - Moderate effect)
Hordeum vulgare (HORVW); dose 0.1 kg/ha
  HORVW rating: 3 (3 - Moderate effect)
Hordeum vulgare (HORVW); dose 0.4 kg/ha
  HORVW rating: 6 (6 - Herbicidal effect)
[5]; dose 0.013 kg/ha
  DIGSA rating: 8 (8 - Approaching complete kill)
[5]; dose 0.025 kg/ha
  DIGSA rating: 8 (8 - Approaching complete kill)
[5]; dose 0.1 kg/ha
  DIGSA rating: 9 (9 - Complete kill)
[5]; dose 0.4 kg/ha
  DIGSA rating: 9 (9 - Complete kill)
[4]; dose 0.03 kg/ha
  DIGSA rating: 9 (9 - Complete kill)
[4]; dose 0.1 kg/ha
  DIGSA rating: 9 (9 - Complete kill)
[4]; dose 0.4 kg/ha
  DIGSA rating: 9 (9 - Complete kill)

## Cc1cc(OCC=C(Cl)Cl)nc(Oc2cc(C(F)(F)F)nn2C)c1 [Example 12]
[1]; dose 0.013 kg/ha
  ECHCG rating: 3 (3 - Moderate effect)
[1]; dose 0.025 kg/ha
  ECHCG rating: 5 (5 - Definite injury)
[1]; dose 0.1 kg/ha
  ECHCG rating: 8 (8 - Approaching complete kill)
[1]; dose 0.4 kg/ha
  ECHCG rating: 9 (9 - Complete kill)
[2]; dose 0.013 kg/ha
  IPOHE rating: 2 (2 - Slight effect)
[2]; dose 0.025 kg/ha
  IPOHE rating: 3 (3 - Moderate effect)
[2]; dose 0.1 kg/ha
  IPOHE rating: 9 (9 - Complete kill)
[2]; dose 0.4 kg/ha
  IPOHE rating: 9 (9 - Complete kill)
Glycine max (GLXMA); dose 0.03 kg/ha
  GLXMA rating: 5 (5 - Definite injury)
Glycine max (GLXMA); dose 0.1 kg/ha
  GLXMA rating: 8 (8 - Approaching complete kill)
Glycine max (GLXMA); dose 0.4 kg/ha
  GLXMA rating: 8 (8 - Approaching complete kill)
Zea mays (ZEAMX); dose 0.013 kg/ha
  ZEAMX rating: 0 (0 - No effect)
Zea mays (ZEAMX); dose 0.025 kg/ha
  ZEAMX rating: 2 (2 - Slight effect)
Zea mays (ZEAMX); dose 0.1 kg/ha
  ZEAMX rating: 3 (3 - Moderate effect)
Zea mays (ZEAMX); dose 0.4 kg/ha
  ZEAMX rating: 5 (5 - Definite injury)
Stellaria media (STEME); dose 0.03 kg/ha
  STEME rating: 8 (8 - Approaching complete kill)
Stellaria media (STEME); dose 0.1 kg/ha
  STEME rating: 8 (8 - Approaching complete kill)
Stellaria media (STEME); dose 0.4 kg/ha
  STEME rating: 8 (8 - Approaching complete kill)
[6]; dose 0.03 kg/ha
  CASOB rating: 8 (8 - Approaching complete kill)
[6]; dose 0.1 kg/ha
  CASOB rating: 8 (8 - Approaching complete kill)
[6]; dose 0.4 kg/ha
  CASOB rating: 8 (8 - Approaching complete kill)
Hordeum vulgare (HORVW); dose 0.013 kg/ha
  HORVW rating: 3 (3 - Moderate effect)
Hordeum vulgare (HORVW); dose 0.025 kg/ha
  HORVW rating: 4 (4 - Injury)
Hordeum vulgare (HORVW); dose 0.1 kg/ha
  HORVW rating: 5 (5 - Definite injury)
Hordeum vulgare (HORVW); dose 0.4 kg/ha
  HORVW rating: 8 (8 - Approaching complete kill)
[5]; dose 0.013 kg/ha
  DIGSA rating: 9 (9 - Complete kill)
[5]; dose 0.025 kg/ha
  DIGSA rating: 9 (9 - Complete kill)
[5]; dose 0.1 kg/ha
  DIGSA rating: 9 (9 - Complete kill)
[5]; dose 0.4 kg/ha
  DIGSA rating: 9 (9 - Complete kill)
[4]; dose 0.03 kg/ha
  DIGSA rating: 8 (8 - Approaching complete kill)
[4]; dose 0.1 kg/ha
  DIGSA rating: 9 (9 - Complete kill)
[4]; dose 0.4 kg/ha
  DIGSA rating: 9 (9 - Complete kill)
